Experimental data from US8293256B2, “Sulfamide derivatives and cosmetic use thereof” (L'Oreal, priority 2004, dated 2012).

What was measured:
stratum corneum [1] = test: Dermometer: mechanical measurement of the plasticizing effect (modulus of elasticity); details: 30° C., 75% relative humidity, 3% aqueous solution (compounds 9 and 15 in isopropyl N-lauroyl sarcosinate), mean ± standard deviation, 6 to 10 samples
Procedure: (§1) Two tests were performed to evaluate the moisturizing potential of the compounds of the invention formulated in an aqueous 3% solution (except for compounds 9 and 15, which were evaluated in a solution of isopropyl N-lauroyl sarcosinate).
Dermometer, mechanical measurement of the plasticizing effect (described by J. de Rigal, J-L. Leveque, International Journal of Cosmetic Science, 1982, 247-260),
The tests carried out were performed under standard conditions on stratum corneum in a room with regulated temperature and humidity (T=30° C. and RH=75%). The modulus of elasticity measurements are performed on each control specimen and then 2 hours and 20 hours after application of the treatment. The relative variation in the modulus allows assessment of the plasticizing effect of the active agent on the stratum corneum.
The mean and the standard deviation were calculated on 6 to 10 samples.

stratum corneum [2] = test: Transepidermal Water Loss (TWL) across isolated defatted stratum corneum (Evaporimeter EP1); details: 40% relative humidity, 30° C., 3% aqueous solution (compounds 9 and 15 in isopropyl N-lauroyl sarcosinate), mean ± standard deviation, 8 samples
Procedure: as §1
Transepidermal Water Loss (TWL), evaluation of the changes in barrier function of the stratum corneum.
Transepidermal water loss is a physiological phenomenon of diffusion of water vapour across the horny layer. It results from the presence of a high pressure gradient of water vapour between the internal and external media of the body. The TWL depends on the integrity of the barrier function of the stratum corneum. The machine evaluating the TWL (Evaporimeter EP1, Servomed) measures the flow of water that diffuses passively across the stratum corneum (g/m^2/h).
The isolated stratum is placed (inner face) on a water tank and equilibrated in a room regulated at 40% relative humidity (T=30° C.). Before the measurement, the stratum corneum is defatted via a two-hour treatment in a mixture of chloroform and methanol (2 v/lv). For each measurement, the TWL is measured on the stratum corneum before treatment and then 2 and 20 hours after application of the treatment. […] The measurements are analysed in pairs. […]
The mean and the standard deviation were calculated on 8 samples distributed over 2 batches of stratum corneum.

Compound	melting point	Relative variation in the modulus of elasticity of stratum corneum (stratum corneum [1]; 2 h after application)	Relative variation in the modulus of elasticity of stratum corneum (stratum corneum [1]; 20 h after application)	Relative variation of the TWL measurements (stratum corneum [2]; 2 h after application)	Relative variation of the TWL measurements (stratum corneum [2]; 20 h after application)
C[Si](C)(C)C(NS(N)(=O)=O)[Si](C)(C)C	76 to 77.5 °C				
NC(N)=O [3% urea in water, urea]		−72 ± 9%	−83 ± 7%	64.3 ± 26.9%	48.3 ± 24.5%
NS(=O)(=O)NCCOS(N)(=O)=O [Compound 17, 2-[(aminosulfonyl)amino]ethyl sulfamate]	78 to 82 °C				
